Reference: publication doi:10.1101/2020.10.22.350827v1 (biorxiv, 2020)
Where a chain is given by its changes, count along the chain named.

Key:
[1] = biological target: T1, Nluc-A1R (adenosine A1 receptor) (Homo sapiens, UniProt P30542); assay: NanoBRET competition binding, live HEK […] cells; format: cell-based
T1 sequence (P30542 1-326): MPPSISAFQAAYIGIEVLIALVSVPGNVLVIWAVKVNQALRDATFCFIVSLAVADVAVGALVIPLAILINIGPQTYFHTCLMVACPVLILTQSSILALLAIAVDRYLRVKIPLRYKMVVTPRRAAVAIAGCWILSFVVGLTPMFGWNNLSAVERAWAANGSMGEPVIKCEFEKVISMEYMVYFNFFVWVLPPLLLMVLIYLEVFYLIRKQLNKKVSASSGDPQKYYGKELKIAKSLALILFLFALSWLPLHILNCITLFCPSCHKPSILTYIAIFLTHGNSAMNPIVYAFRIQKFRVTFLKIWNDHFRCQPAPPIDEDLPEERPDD

[2] = biological target: T2, Nluc-A1R (adenosine A1 receptor) L253T (Homo sapiens, UniProt P30542, L253T); assay: cell-based; parameters: species or system HEK 293
T2 sequence (P30542 1-326 L253T): T1 sequence (P30542 1-326) with L253T

[3] = biological target: T3, Nluc-A1R (adenosine A1 receptor) (Homo sapiens, UniProt P30542, T257A); assay: NanoBRET competition binding, live HEK […] cells; format: cell-based
T3 sequence (P30542 1-326 T257A): T1 sequence (P30542 1-326) with T257A

[4] = biological target: T4, Nluc-A1R (adenosine A1 receptor) (Homo sapiens, UniProt P30542, L253A); assay: NanoBRET competition binding, live HEK […] cells; format: cell-based
T4 sequence (P30542 1-326 L253A): T1 sequence (P30542 1-326) with L253A

[5] = biological target: T5, Nluc-A1R (adenosine A1 receptor) N70A (Homo sapiens, UniProt P30542, N70A); assay: cell-based; parameters: species or system HEK 293
T5 sequence (P30542 1-326 N70A): T1 sequence (P30542 1-326) with N70A

[6] = biological target: T6, Nluc-A1R (adenosine A1 receptor) L258A (Homo sapiens, UniProt P30542, L258A); assay: cell-based; parameters: species or system HEK 293
T6 sequence (P30542 1-326 L258A): T1 sequence (P30542 1-326) with L258A

[7] = biological target: T7, Nluc-A1R (adenosine A1 receptor) K265A (Homo sapiens, UniProt P30542, K265A); assay: cell-based; parameters: species or system HEK 293
T7 sequence (P30542 1-326 K265A): T1 sequence (P30542 1-326) with K265A

Ki [1]: 427 nM | Ki [2]: 2040 nM | Ki [3]: 115 nM | Ki [4]: 3240 nM | Ki [5]: 891 nM | Ki [6]: 1410 nM | Ki [7]: 977 nM
SMILES: OC[C@H]1O[C@@H](n2cnc3c(N[C@@H]4CCC[C@H]4O)ncnc32)[C@H](O)[C@@H]1O [compound 6, HOCPA]
